One series concerns HepG2. The series is described as follows: Antiproliferative activity against human HepG2 cells assessed as inhibition of cell proliferation measured after 24 hrs by MTT assay. Type of series: functional, cell-based. As to conditions: HepG2, 24 h.
The next series deals with OVCAR-3. The series is described as follows: Antiproliferative activity against human OVCAR-3 cells assessed as inhibition of cell proliferation measured after 24 hrs by MTT assay. Format: functional, cell-based. To be noted: OVCAR-3, 24 h. In general terms: Tetrazolium dyes change colour on reduction, which living cells bring about.
In a further series the test system is A549. The series is described as follows: Antiproliferative activity against human A549 cells assessed as inhibition of cell proliferation measured after 24 hrs by MTT assay. Type of series: functional, cell-based. As to conditions: A549, 24 h.
The subject of another series is LoVo. The series is described as follows: Antiproliferative activity against human LoVo cells assessed as inhibition of cell proliferation measured after 24 hrs by MTT assay. Format: functional, cell-based.
The subject of another series is SGC-7901. The series is described as follows: Antiproliferative activity against human SGC-7901 cells assessed as inhibition of cell proliferation measured after 24 hrs by MTT assay. To be noted: SGC-7901, 24 h. Format: functional, cell-based.
The test system of the next series is PANC-1. Nature of the series: Antiproliferative activity against human PANC-1 cells assessed as inhibition of cell proliferation measured after 24 hrs by MTT assay. Format: functional, cell-based. As to conditions: PANC-1, 24 h.
Series [1] can be described thus: Cytotoxicity against human MRC5 cells assessed as reduction in cell viability measured after 24 hrs by MTT assay. Format: cell-based.
Series [2] can be described thus: Cytotoxicity against human GES1 cells assessed as reduction in cell viability measured after 24 hrs by MTT assay. Type of series: cell-based.
Series [3] in a line: Cytotoxicity against human IOSE80 cells assessed as reduction in cell viability measured after 24 hrs by MTT assay. Type of series: cell-based.
Series [4] can be described thus: Cytotoxicity against human NCM460 cells assessed as reduction in cell viability measured after 24 hrs by MTT assay. Format: cell-based.
A short description of series [5]: Cytotoxicity against human HPDE6c7 cells assessed as reduction in cell viability measured after 24 hrs by MTT assay. Format: functional.
Series [6] can be described thus: Cytotoxicity against human L02 cells assessed as reduction in cell viability measured after 24 hrs by MTT assay. Type of series: cell-based.
In series [7] the target is Heat shock protein HSP 90-alpha (Homo sapiens, UniProt P07900). Nature of the series: Inhibition of recombinant human N terminal his-tagged HSP90 alpha (1 to 732 residues) expressed in Escherichia coli measured after 60 mins by Flourescence polarization assay.

Structures are written as SMILES. A value given as a limit tells only on which side of the number the result lay.

In the case of `CC1(C)[C@H]2CC[C@]1(C)N(Cc1cn(-c3ccc(Cl)cc3)nn1)C(=O)C2`, the IC50 was 0.09 µM in the series on HepG2; 0.16 µM with OVCAR-3; 0.07 µM with A549; 0.16 µM in the series on LoVo; 0.41 µM with SGC-7901; 0.44 µM in the series with PANC-1.
Take `CC1(C)[C@H]2CC[C@]1(C)N(Cc1cn(-c3ccccc3Cl)nn1)C(=O)C2`: the IC50 in the series with HepG2 worked out at 0.06 µM; with OVCAR-3, 0.04 µM; with A549 it was 0.07 µM; in the series on LoVo, 0.19 µM; with SGC-7901, 0.22 µM; in series [7], 0.00328 µM. Also, the IC50 in the series on PANC-1 was found to be 0.27 µM. Also, the CC50 at 24 h in series [1] worked out at 4.13 µM; in [2] it was 5.37 µM; in [3], 13.3 µM; in series [4], 10.8 µM; in series [6], 20.1 µM. In addition, the CC50 in series [5] was found to be 3.94 µM.
On to `COc1ccc(-n2cc(CN3C(=O)C[C@@H]4CC[C@@]3(C)C4(C)C)nn2)cc1`, for which the IC50 with HepG2 amounted to 0.1 µM; with OVCAR-3, 0.25 µM; in the series with A549, 0.05 µM; with LoVo it was 0.07 µM; in the series with SGC-7901, 0.48 µM; in the series with PANC-1, 0.33 µM.
`CC1(C)[C@H]2CC[C@]1(C)N(Cc1cn(-c3ccccc3C#N)nn1)C(=O)C2`: the IC50 with HepG2 worked out at 0.18 µM; in the series on OVCAR-3 it was 0.11 µM; with A549, 0.1 µM; in the series on LoVo, 0.14 µM; in the series on SGC-7901 it was 0.26 µM; in [7], 0.00799 µM. Moreover, the IC50 in the series on PANC-1 was determined as 0.24 µM. The CC50 at 24 h in [1] was 23.3 µM; in series [2] it was 9.45 µM; in [3], 13.8 µM; in series [4], 37.5 µM; in [6], 46.1 µM. The CC50 in series [5] stood at 16 µM.
For `Cc1cccc(-n2cc(CN3C(=O)C[C@@H]4CC[C@@]3(C)C4(C)C)nn2)c1`, the IC50 in the series with HepG2 turned out to be 0.3 µM; in the series with OVCAR-3, 0.16 µM; in the series on A549, 0.05 µM; in the series on LoVo it was 0.05 µM; with SGC-7901, 0.41 µM; in the series with PANC-1 it was 0.24 µM.
Regarding `CC1(C)[C@H]2CC[C@]1(C)N(Cc1cn(-c3ccccc3O)nn1)C(=O)C2`, the IC50 in the series on HepG2 worked out at 0.12 µM; with OVCAR-3, 0.09 µM; in the series with A549, 0.23 µM; in the series on LoVo, 0.54 µM; in the series with SGC-7901 it was 0.41 µM; in the series on PANC-1, 0.23 µM.
On to `CC1(C)[C@H]2CC[C@]1(C)N(Cc1cn(-c3cccc(O)c3)nn1)C(=O)C2`, for which the IC50 in the series with HepG2 stood at 0.07 µM; with OVCAR-3 it was 0.37 µM; with A549, 0.18 µM; with LoVo it was 0.41 µM; in the series on SGC-7901, 0.27 µM; with PANC-1 it was 0.28 µM.
With `CC1(C)[C@H]2CC[C@]1(C)N(Cc1cn(-c3ccccc3F)nn1)C(=O)C2`, the IC50 in the series with HepG2 turned out to be 0.06 µM; in the series on OVCAR-3 it was 0.3 µM; in the series with A549 it was 0.24 µM; with LoVo it was 0.04 µM; in the series on SGC-7901, 0.3 µM; in series [7], 0.00268 µM. Moreover, the IC50 in the series on PANC-1 was 0.15 µM. Moreover, the CC50 at 24 h in series [1] came to 15.1 µM; in series [2], 5.16 µM; in series [3], 19.2 µM; in series [4], 5.26 µM; in [6], 13.3 µM. For the same compound, the CC50 in [5] is 26.2 µM.
On to `CC1(C)[C@H]2CC[C@]1(C)N(Cc1cn(-c3ccc(Br)cc3)nn1)C(=O)C2`, for which the IC50 in the series with HepG2 stood at 0.11 µM; with OVCAR-3, 0.14 µM; with A549 it was 0.08 µM; in the series with LoVo it was 0.06 µM; in the series on SGC-7901 it was 0.45 µM; with PANC-1 it was 0.2 µM.
Turning to `CC1(C)[C@H]2CC[C@]1(C)N(Cc1cn(-c3cccc(F)c3)nn1)C(=O)C2`, the IC50 in the series with HepG2 came to 0.08 µM; with OVCAR-3, 0.43 µM; in the series on A549, 0.18 µM; with LoVo, 0.09 µM; in the series with SGC-7901 it was 0.53 µM; in the series on PANC-1 it was 0.22 µM.
For the compound `COc1ccccc1-n1cc(CN2C(=O)C[C@@H]3CC[C@@]2(C)C3(C)C)nn1`, the IC50 is 0.11 µM in the series with HepG2; 0.14 µM in the series with OVCAR-3; 0.35 µM with A549; 0.07 µM in the series with LoVo; 0.28 µM with SGC-7901; 0.12 µM in the series with PANC-1.
As for `COc1cccc(-n2cc(CN3C(=O)C[C@@H]4CC[C@@]3(C)C4(C)C)nn2)c1`, the IC50 was found to be 0.07 µM with HepG2; 0.28 µM with OVCAR-3; 0.24 µM with A549; 0.08 µM in the series on LoVo; 0.59 µM in the series on SGC-7901; 0.86 µM with PANC-1.
Regarding `CC1(C)[C@H]2CC[C@]1(C)N(Cc1cn(-c3ccccc3)nn1)C(=O)C2`, the IC50 with HepG2 is 0.09 µM; in the series on OVCAR-3, 0.05 µM; in the series on A549 it was 0.07 µM; in the series on LoVo, 0.05 µM; in the series with SGC-7901, 0.24 µM; in series [7], 0.034 µM. The IC50 with PANC-1 came out at 0.16 µM. The CC50 at 24 h in [1] was found to be 9.73 µM; in [2], 6.69 µM; in series [3] it was 23.4 µM; in series [4], 19.6 µM; in series [6] it was 6.23 µM. For the same compound, in [5], the half-maximal cytotoxic concentration (CC50) was more than 100 µM.
As to `CC1(C)[C@H]2CC[C@]1(C)N(Cc1cn(-c3cccc(C#N)c3)nn1)C(=O)C2`, the IC50 with HepG2 was found to be 0.04 µM; in the series on OVCAR-3, 0.23 µM; in the series on A549, 0.44 µM; with LoVo, 0.32 µM; in the series with SGC-7901, 0.25 µM; with PANC-1, 0.26 µM.
`Cc1ccc(-n2cc(CN3C(=O)C[C@@H]4CC[C@@]3(C)C4(C)C)nn2)cc1`: the IC50 with HepG2 came to 0.48 µM; in the series with OVCAR-3, 0.04 µM; in the series on A549, 0.4 µM; with LoVo, 0.05 µM; in the series on SGC-7901 it was 0.39 µM; with PANC-1, 0.27 µM.
Regarding `Cc1ccccc1-n1cc(CN2C(=O)C[C@@H]3CC[C@@]2(C)C3(C)C)nn1`, the IC50 in the series on HepG2 turned out to be 0.15 µM; with OVCAR-3, 0.15 µM; in the series with A549, 0.09 µM; with LoVo it was 0.08 µM; in the series with SGC-7901 it was 0.35 µM; with PANC-1, 0.25 µM.
With `CC1(C)[C@H]2CC[C@]1(C)N(Cc1cn(-c3ccccc3Br)nn1)C(=O)C2`, the IC50 was found to be 0.15 µM in the series on HepG2; 0.14 µM with OVCAR-3; 0.13 µM in the series with A549; 0.06 µM with LoVo; 0.5 µM in the series on SGC-7901; 0.28 µM in the series on PANC-1.
With `CC1(C)[C@H]2CC[C@]1(C)N(Cc1cn(-c3ccc(O)cc3)nn1)C(=O)C2`, the IC50 in the series on HepG2 was found to be 0.08 µM; with OVCAR-3, 0.41 µM; in the series with A549, 0.14 µM; in the series on LoVo, 0.41 µM; in the series with SGC-7901, 0.33 µM; in the series on PANC-1, 0.1 µM.
For `CC1(C)[C@H]2CC[C@]1(C)N(Cc1cn(-c3ccc(F)cc3)nn1)C(=O)C2`, the IC50 was determined as 0.09 µM in the series with HepG2; 0.2 µM in the series on OVCAR-3; 0.23 µM with A549; 0.04 µM in the series with LoVo; 0.5 µM with SGC-7901; 0.11 µM in the series with PANC-1.

By IC50 is commonly meant the point on the concentration scale where inhibition reaches its midpoint. For orientation: CC50 means the concentration that lowers cell viability or growth by half.
